Assays:
[1] = Inhibition of ulcer provoked by serotonin (Hashizume technique); assay type: in vivo, male Sprague-Dawley rats; settings: serotonin 60 mg/kg sub-cutaneous
Experimental: ULCER PROVOKED BY SEROTONIN The technique used is the one described by Hashizume, in Arch. Int. Pharmacodyn. 236, 96-108, (1978). The experiment is carried out on 3 batches of male Sprague-Dawley rats. Each batch includes 20 animals. The first batch constitutes the controls, the second is treated with Carbenoxolone, the third is treated with the product to be tested. The animals are made to fast 24 hours before the experiment. At t=0, the product to be tested is administered by the IP route to the third batch, 100 mg/kg of Carbenoxolone are administered per os to the second batch. At t=+10 mins., a sub-cutaneous injection is made of serotonin at 60 mg/kg in the three batches. At t=+250 mins., the animals are sacrificed. The stomachs are removed and spread out and the ulcers are marked as follows: small ulcer +=1 average ulcer ++=3 large ulcer +++=9 The results relative to the inhibition of the ulcers provoked by serotonin are given in Table IV hereinbelow with the doses of the products tested.

[2] = Inhibition of oedema provoked by carragenine (anti-inflammatory effect); assay type: in vivo; settings: IP, dose equal to one tenth of the LD50 IP
From the text: (§1) The techniques relative to the anti-inflammatory effects (oedema caused by carragenine) and antalgic effects (cramping) which were used are the conventional techniques described in the prior art.
(§2) Table III hereinbelow deals with the LD50 and with the inhibition of the ulcers caused by aspirin, the inhibition of the oedema provoked by carragenine and cramping (the products to be tested being, in the latter two cases, administered by the IP route at a dose equal to one tenth of the LD50 IP).

[3] = Clinic: treatment of oedemas in man; assay type: in vivo
[4] = Toxicity, LD50 (DL50) I.P.; settings: in vivo, ip
From the text: The pharmacological tests carried out particularly with regard to toxicity, the ulcers provoked by aspirin and serotonin, and the anti-inflammatory and antalgic effects, are summarised hereinafter. The methods used are recalled hereinafter.
as §2

[5] = Inhibition of ulcer provoked by aspirin; assay type: in vivo, male Wistar rats; settings: Rattus norvegicus; rats; 100 mg/kg IP at t=0 and again at t=18 h; aspirin 192 mg/kg per os; sacrificed at t=22 h; read-out: Aspirine induced ulcer % inhibition
Experimental: The experiment is carried out on male Wistar rats weighing 180 to 200 g.
At t=0 the rats are made to fast and a first administration of the product to be tested, at a dose of 100 mg/kg, is made IP. At t=18 hours, 2 ml of an ulcer-forming suspension with 192 mg of aspirin/kg are administered per os then a second IP administration of the product to be tested, at a dose of 100 mg/kg, is made.
At t=22 hours, the animals are sacrificed and the ulcers are marked as follows: small punctiform ulcers: mark 1 more extensive ulcers: mark 3 very extensive or very deep ulcers: mark 9
as §2

[6] = Inhibition of cramping (antalgic effect); assay type: in vivo; settings: IP, dose equal to one tenth of the LD50 IP
From the text: as §1, §2

[7] = Clinic: treatment of pain in man; assay type: in vivo
[8] = Clinic: treatment of ulcers in man; assay type: in vivo

Row | Compound | Carragheenine oedema % inhibition [2] [%] | results in the treatment of oedemas [3] | LD50 ([4]; I.P.) [mg/kg] | inhibition in vivo at 100 mg/kg [5] [%] | Cramping % inhibition [6] [%] | results in the treatment of ulcers [8] | further results
1 | CC1(C)[C@@H](OC(=O)CCC(=O)O)CC[C@]2(C)[C@H]3C(=O)C=C4[C@@H]5C[C@@](C)(C(=O)O)CC[C@]5(C)CC[C@@]4(C)[C@]3(C)CC[C@@H]12 [Carbenoxolone, reference compound] |  |  |  |  |  |  | Serotonine ulcer % inhibition ([1]; Carbenoxolone 60 mg/kg IP as printed in table, method says 100 mg/kg per os): 64%
2 | O=C(O)c1cc2ccc3c(c2[nH]1)CCCO3 [Example 4, 7,8,9-trihydro-pyrano[2,3-g]indole-2-carboxylic acid] | 35 | excellent results | 600 | 11 | 36 |  | 
3 | O=C(O)c1cc2cc(Cl)c3c(c2[nH]1)CCCO3 [Example 5, 5-chloro-7,8,9-trihydro-pyrano[2,3-g]indole-2-carboxylic acid] | 30 | excellent results | 300 | 28 | 35 |  | 
4 | COc1cc2cc(C(=O)O)[nH]c2c2c1OCCC2 [Example 6, 5-methoxy-7,8,9-trihydro-pyrano[2,3-g]indole-2-carboxylic acid] |  |  | > 800 | 23 | 66 |  | results in the treatment of pain [7]: excellent results
5 | c1cc2ccc3c(c2[nH]1)CCCO3 [Example 7, 7,8,9-trihydro-pyrano[2,3-g]indole] |  |  | 750 | 46 | 14 | excellent results | Serotonine ulcer % inhibition ([1]; 75 mg/kg IP): 64%
6 | Clc1cc2cc[nH]c2c2c1OCCC2 [Example 8, 5-chloro-7,8,9-trihydro-pyrano[2,3-g]indole] | 33 |  | 900 | 42.5 | 26 | excellent results | Serotonine ulcer % inhibition ([1]; 45 mg/kg IP): 75%
7 | COc1cc2cc[nH]c2c2c1OCCC2 [Example 9, 5-methoxy-7,8,9-trihydro-pyrano[2,3-g]indole] | 39 | excellent results | 650 | 51 | 41 |  | 
8 | CN(C)Cc1c[nH]c2c3c(ccc12)OCCC3 [Example 14, 3-(7,8,9-trihydro-pyrano[2,3-g]indolyl)-N,N-dimethylmethylamine] | 22 |  |  | 47.5 | 67 | excellent results | LD50 [4]: 180 mg/kg
9 | COc1cc2cc(C(=O)O)[nH]c2c2c1OCCC2=O [Example 19, 5-methoxy-9-oxo-7,8-dihydro-pyrano[2,3-g]indole-2-carboxylic acid] |  |  | > 1000 | 49 |  | excellent results | 
10 | COc1cc2cc[nH]c2c2c1OCCC2=O [Example 21, 5-methoxy-9-oxo-7,8-dihydro-pyrano[2,3-g]indole] | 49 |  | 600 | 60 | 37 | excellent results | Serotonine ulcer % inhibition ([1]; 60 mg/kg IP): 87%
11 | COc1cc2cc[nH]c2c2c1OCCC2=NO [Example 23] | 52 |  |  | 40 | 51 | excellent results | DLo [4]: > 800 mg/kg; Serotonine ulcer % inhibition ([1]; 92 mg/kg IP): 52%
12 | COc1cc2cc[nH]c2c2c1OCCC2O (stereo not shown) [Example 24] | 40 | excellent results | 1000 |  | 60 |  | 
